Consider 37 compounds from patent US11033539B2, “Compounds of formulas (VII), (VIII), (IX), (XI), (XII), (XIII), and (XIV) as muscarinic receptor 4(M4) antagonists for treating neurological diseases” (Neurocrine Biosciences, Inc., priority 2015, dated 2021).

In this test the target is human M4 receptor (Homo sapiens (Human), UniProt P08173). As to the kind of experiment: Radioligand (tritiated N-methylscopolamine) binding assay, M4. The settings on record: Ki against the M4 receptor; membranes from CHO cells expressing human M4; tritiated N-methylscopolamine 1.5 nM; read-out: Ki. The method in brief:
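CHO membranes; 1.5 nM radioligand; 12-point compound dose-response, 10 μM to […]; HEPES/NaCl/MgCl2/EDTA buffer pH 7.4; 90 min, 37 °C. PEI-treated glass fiber filtration, radioactivity counting. Ki from inhibition of binding.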

human M4 receptor, sequence (P08173 whole entry): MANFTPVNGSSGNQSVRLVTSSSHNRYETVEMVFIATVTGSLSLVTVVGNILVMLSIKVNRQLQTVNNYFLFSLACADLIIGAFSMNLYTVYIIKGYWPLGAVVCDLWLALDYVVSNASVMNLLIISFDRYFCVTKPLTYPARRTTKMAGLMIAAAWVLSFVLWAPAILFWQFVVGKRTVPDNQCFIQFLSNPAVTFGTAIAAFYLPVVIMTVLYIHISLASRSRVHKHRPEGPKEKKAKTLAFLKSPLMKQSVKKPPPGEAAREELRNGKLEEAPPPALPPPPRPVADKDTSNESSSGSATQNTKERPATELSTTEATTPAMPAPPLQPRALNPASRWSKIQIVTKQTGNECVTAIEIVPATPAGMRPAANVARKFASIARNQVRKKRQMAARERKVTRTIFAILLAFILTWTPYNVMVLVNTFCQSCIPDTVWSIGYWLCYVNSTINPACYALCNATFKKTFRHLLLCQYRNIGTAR

Regarding `C[C@@H]1CN(c2cc(F)cc(C#N)c2)CCN1C(=O)NC[C@H](O)C1CCN(Cc2ccccc2)CC1` [7-4, (2R)-N-[(2R)-2-(1-benzylpiperidin-4-yl)-2-hydroxyethyl]-4-(3-cyano-5-fluorophenyl)-2-methylpiperazine-1-carboxamide], the Ki lay within 10 to 100 nM. As to `C[C@@H]1CN(c2cc(F)c(F)c(F)c2)CCN1C(=O)NCC[C@H]1CCN(Cc2ccccc2)C1` [7-5, (2R)-N-{2-[(3S)-1-benzylpyrrolidin-3-yl]ethyl}-2-methyl-4-(3,4,5-trifluorophenyl)piperazine-1-carboxamide], the Ki fell in the range of 100 to 1000 nM. For the compound `C[C@@H]1CN(c2cc(F)c(F)c(F)c2)CCN1C(=O)NCCN1CCN(Cc2ccccc2)CC1` [7-6, (2R)-N-[2-(4-benzylpiperazin-1-yl)ethyl]-2-methyl-4-(3,4,5-trifluorophenyl)piperazine-1-carboxamide], the inhibitory constant (Ki) fell in the range of 100 to 1000 nM. Consider `C[C@@H]1CN(c2cc(F)c(F)c(F)c2)CCN1C(=O)NCCN1CCC(O)(Cc2ccccc2)CC1` [7-7, (2R)-N-[2-(4-benzyl-4-hydroxypiperidin-1-yl)ethyl]-2-methyl-4-(3,4,5-trifluorophenyl)piperazine-1-carboxamide], for which the Ki lay in the range of 100 to 1000 nM. As to `C[C@@H]1CN(c2cc(F)cc(C#N)c2)CCN1C(=O)NCC[C@H]1CCN(Cc2ccccc2)C1` [7-8, (2R)-N-{2-[(3S)-1-benzylpyrrolidin-3-yl]ethyl}-4-(3-cyano-5-fluorophenyl)-2-methylpiperazine-1-carboxamide], the Ki fell in the range of 100 to 1000 nM. `C[C@@H]1CN(c2cc(F)c(F)c(F)c2)CCN1C(=O)NCCN(C)[C@@H]1C[C@H](CO)N(Cc2ccccc2)C1` [7-13, (2R)-N-(2-{[(3R,5R)-1-benzyl-5-(hydroxymethyl)pyrrolidin-3-yl](methyl)amino}ethyl)-2-methyl-4-(3,4,5-trifluorophenyl)piperazine-1-carboxamide]: the Ki was in the range of 100 to 1000 nM.

For the compound `O=C(NCCC1CCN(Cc2ccccc2)CC1)N1CCN(c2cccc(OC(F)(F)F)c2)CC1` [8-2, N-[2-(1-benzylpiperidin-4-yl)ethyl]-4-[3-(trifluoromethoxy)phenyl]piperazine-1-carboxamide], the Ki lay within 10 to 100 nM. As for `O=C(NCCC1CCN(Cc2ccccc2)CC1)N1CCC(c2cccc(C(F)(F)F)c2)CC1` [8-3, N-[2-(1-benzylpiperidin-4-yl)ethyl]-4-[3-(trifluoromethyl)phenyl]piperidine-1-carboxamide], the figure is 10 to 100 nM. With `O=C(NCCC1CCN(Cc2ccccc2)CC1)N1CCC(c2ccc(Cl)cc2)CC1` [8-4, N-[2-(1-benzylpiperidin-4-yl)ethyl]-4-(4-chlorophenyl)piperidine-1-carboxamide] the figure was 10 to 100 nM; with `COc1cccc(C2CCN(C(=O)NCCC3CCN(Cc4ccccc4)CC3)CC2)c1` [8-5, N-[2-(1-benzylpiperidin-4-yl)ethyl]-4-(3-methoxyphenyl)piperidine-1-carboxamide], 100 to 1000 nM; with `COc1ccccc1C1CCN(C(=O)NCCC2CCN(Cc3ccccc3)CC2)CC1` [8-6, N-[2-(1-benzylpiperidin-4-yl)ethyl]-4-(2-methoxyphenyl)piperidine-1-carboxamide], 100 to 1000 nM.

As to `N#Cc1cc(Cl)ccc1N1CCN(C(=O)NCCC2CCN(Cc3ccccc3)CC2)CC1` [8-7, N-[2-(1-benzylpiperidin-4-yl)ethyl]-4-(4-chloro-2-cyanophenyl)piperazine-1-carboxamide], the Ki lay in the range of 100 to 1000 nM. As for `O=C(NCCC1CCN(Cc2ccccc2)CC1)N1CCN(c2ccc(OC(F)(F)F)cc2)CC1` [8-8, N-[2-(1-benzylpiperidin-4-yl)ethyl]-4-[4-(trifluoromethoxy)phenyl]piperazine-1-carboxamide], the Ki was in the range of 10 to 100 nM. Consider `CN(C(=O)NCCC1CCN(Cc2ccccc2)CC1)C1CCN(c2ccc(Br)cn2)C1` (stereo not shown) [8-9, 1-[2-(1-benzylpiperidin-4-yl)ethyl]-3-[1-(5-bromopyridin-2-yl)pyrrolidin-3-yl]-3-methylurea], for which the Ki was 10 to 100 nM. For the compound `O=C(NCCC1CCN(Cc2ccccc2)CC1)N1CCC(c2csc3ccccc23)CC1` [8-10, 4-(1-benzothiophen-3-yl)-N-[2-(1-benzylpiperidin-4-yl)ethyl]piperidine-1-carboxamide], the Ki is 10 to 100 nM. As for `O=C(NCCC1CCN(Cc2ccccc2)CC1)N1CCN(c2cccc(Cl)c2)CC1` [8-11, N-[2-(1-benzylpiperidin-4-yl)ethyl]-4-(3-chlorophenyl)piperazine-1-carboxamide], the figure is 10 to 100 nM; as for `N#Cc1cc(C(F)(F)F)ccc1N1CCN(C(=O)NCCC2CCN(Cc3ccccc3)CC2)CC1` [8-12, N-[2-(1-benzylpiperidin-4-yl)ethyl]-4-[2-cyano-4-(trifluoromethyl)phenyl]piperazine-1-carboxamide], 10 to 100 nM; as for `O=C(NCCC1CCN(Cc2ccccc2)CC1)N1CCN(c2ccc(Cl)cc2)CC1` [8-13, N-[2-(1-benzylpiperidin-4-yl)ethyl]-4-(4-chlorophenyl)piperazine-1-carboxamide], 10 to 100 nM. Turning to `O=C(NCCC1CCN(Cc2ccccc2)CC1)N1CCC(c2nc3ccccc3s2)CC1` [8-14, 4-(1,3-benzothiazol-2-yl)-N-[2-(1-benzylpiperidin-4-yl)ethyl]piperidine-1-carboxamide], the Ki is 10 to 100 nM.

For `O=C(NCCC1CCN(Cc2ccccc2)CC1)N1CCN(c2ncc(C(F)(F)F)cc2Cl)CC1` [8-15, N-[2-(1-benzylpiperidin-4-yl)ethyl]-4-[3-chloro-5-(trifluoromethyl)pyridin-2-yl]piperazine-1-carboxamide], the Ki fell in the range of 10 to 100 nM. Regarding `CN(C(=O)NCCC1CCN(Cc2ccccc2)CC1)C1CCN(c2ncc(C(F)(F)F)cc2Cl)C1` (stereo not shown) [8-16, 1-[2-(1-benzylpiperidin-4-yl)ethyl]-3-{1-[3-chloro-5-(trifluoromethyl)pyridin-2-yl]pyrrolidin-3-yl}-3-methylurea], the Ki lay in the range of 10 to 100 nM.

With `O=C(NCCC1CCN(Cc2ccccc2)CC1)N1CCN(c2cccc(C(F)(F)F)c2)CC1` [8-17, N-[2-(1-benzylpiperidin-4-yl)ethyl]-4-[3-(trifluoromethyl)phenyl]piperazine-1-carboxamide], the Ki lay in the range of 10 to 100 nM. With `N#Cc1cc(F)cc(N2CCN(C(=O)NCCC3CCN(Cc4ccccc4)CC3)CC2)c1` [8-18, N-[2-(1-benzylpiperidin-4-yl)ethyl]-4-(3-cyano-5-fluorophenyl)piperazine-1-carboxamide], the Ki lay in the range of 10 to 100 nM. As for `O=C(NCCC1CCN(Cc2ccccc2)CC1)N1CCC(O)(c2cccc(C(F)(F)F)c2)CC1` [8-19, N-[2-(1-benzylpiperidin-4-yl)ethyl]-4-hydroxy-4-[3-(trifluoromethyl)phenyl]piperidine-1-carboxamide], the figure is 10 to 100 nM. As to `O=C(NCCC1CCN(Cc2ccccc2)CC1)N1CCC(c2ccc(F)cc2)CC1` [8-20, N-[2-(1-benzylpiperidin-4-yl)ethyl]-4-(4-fluorophenyl)piperidine-1-carboxamide], the Ki was in the range of 100 to 1000 nM. `CN(C(=O)NCCC1CCN(Cc2ccccc2)CC1)C1CCN(c2ccc(C(F)(F)F)cc2)C1` (stereo not shown) [8-21, 1-[2-(1-benzylpiperidin-4-yl)ethyl]-3-methyl-3-{1-[4-(trifluoromethyl)phenyl]pyrrolidin-3-yl}urea]: the Ki fell in the range of 100 to 1000 nM.

With `N#Cc1cc(N2CCN(C(=O)NCCC3CCN(Cc4ccccc4)CC3)CC2)ccc1F` [8-22, N-[2-(1-benzylpiperidin-4-yl)ethyl]-4-(3-cyano-4-fluorophenyl)piperazine-1-carboxamide], the Ki fell in the range of 100 to 1000 nM. With `O=C(NCCC1CCN(Cc2ccccc2)CC1)N1CCC(O)(c2ccc(Cl)cc2)CC1` [8-23, N-[2-(1-benzylpiperidin-4-yl)ethyl]-4-(4-chlorophenyl)-4-hydroxypiperidine-1-carboxamide] the figure was 100 to 1000 nM; with `COc1ccc(C2CCN(C(=O)NCCC3CCN(Cc4ccccc4)CC3)CC2)cc1` [8-24, N-[2-(1-benzylpiperidin-4-yl)ethyl]-4-(4-methoxyphenyl)piperidine-1-carboxamide], 100 to 1000 nM; with `N#Cc1cccc(N2CCN(C(=O)NCCC3CCN(Cc4ccccc4)CC3)CC2)c1` [8-25, N-[2-(1-benzylpiperidin-4-yl)ethyl]-4-(3-cyanophenyl)piperazine-1-carboxamide], 100 to 1000 nM. As for `O=C(NCCC1CCN(Cc2ccccc2)CC1)N1CCC(c2cccc(F)c2)CC1` [8-26, N-[2-(1-benzylpiperidin-4-yl)ethyl]-4-(3-fluorophenyl)piperidine-1-carboxamide], the figure is 100 to 1000 nM; as for `N#Cc1ccc(N2CCN(C(=O)NCCC3CCN(Cc4ccccc4)CC3)CC2)cc1` [8-27, N-[2-(1-benzylpiperidin-4-yl)ethyl]-4-(4-cyanophenyl)piperazine-1-carboxamide], 100 to 1000 nM; as for `O=C(NCCC1CCN(Cc2ccccc2)CC1)N1CCN(c2cccc(O)c2)CC1` [8-28, N-[2-(1-benzylpiperidin-4-yl)ethyl]-4-(3-hydroxyphenyl)piperazine-1-carboxamide], 100 to 1000 nM.

Consider `O=C(NCCC1CCN(Cc2ccccc2)CC1)N1CCN(c2ncccn2)CC1` [8-29, N-[2-(1-benzylpiperidin-4-yl)ethyl]-4-(pyrimidin-2-yl)piperazine-1-carboxamide], for which the Ki was in the range of 100 to 1000 nM. As for `O=C(NCCC1CCN(Cc2ccccc2)CC1)N1CCC(c2c[nH]c3ccccc23)CC1` [8-30, N-[2-(1-benzylpiperidin-4-yl)ethyl]-4-(1H-indol-3-yl)piperidine-1-carboxamide], the figure is 100 to 1000 nM; as for `CC(C)c1noc(C2CCN(C(=O)NCCC3CCN(Cc4ccccc4)CC3)CC2)n1` [8-31, N-[2-(1-benzylpiperidin-4-yl)ethyl]-4-[3-(propan-2-yl)-1,2,4-oxadiazol-5-yl]piperidine-1-carboxamide], 100 to 1000 nM.

As for `O=C(NCCC1CCN(Cc2ccccc2)CC1)N1CCC(c2ccccc2F)CC1` [8-32, N-[2-(1-benzylpiperidin-4-yl)ethyl]-4-(2-fluorophenyl)piperidine-1-carboxamide], the Ki fell in the range of 100 to 1000 nM.

Broadly, the Ki is the equilibrium dissociation constant of an inhibitor or competing ligand from its target.
